According to patent US8551999B2, “Heterocyclic compound and pharmaceutical composition thereof” (Otsuka Pharmaceutical Co., Ltd., priority 2007, dated 2013):

Structure (SMILES)	melting point
Br.Cn1c(C(=O)N2CCN(Cc3ccc(OCCF)cc3)CC2)cc2cc(Oc3ccc(NC(=O)c4ccc(Cl)c(Cl)c4)cn3)ccc21 [Example 409, 3,4-Dichloro-N-[6-(2-{4-[4-(2-fluoroethoxy)benzyl]piperazine-1-carbonyl}-1-methyl-1H-indol-5-yloxy)pyridin-3-yl]benzamide hydrobromide]	240 to 243 °C
Br.COc1ccc(CN2CCN(C(=O)c3cc4ccc(Oc5ccc(NC(=O)c6ccc(Cl)c(Cl)c6)cn5)cc4n3C)CC2)cc1 [Example 258, 3,4-Dichloro-N-(6-{2-[4-(4-methoxybenzyl)piperazine-1-carbonyl]-1-methyl-1H-indol-6-yloxy}pyridin-3-yl)benzamide hydrobromide]	234.6 to 237.2 °C
Cc1ccc(S(=O)(=O)N(C)c2ccc(Oc3ccc4cc(C(=O)N5CCN(Cc6ccc7c(c6)OCO7)CC5)n(C)c4c3)nc2)cc1.Cl	242 to 249 °C
Br.Br.Cn1c(C(=O)N2CCN(Cc3ccncc3)CC2)cc2cc(Oc3ccc(NC(=O)c4ccc(C(F)(F)F)cc4)cn3)ccc21 [Example 550, N-{6-[1-Methyl-2-(4-pyridin-4-ylmethylpiperazine-1-carbonyl)-1H-indol-5-yloxy]pyridin-3-yl}-4-trifluoromethylbenzamide dihydrobromide]	211 to 215 °C (dec.)
Br.COCc1ccc(CN2CCN(C(=O)c3cc4cc(Oc5ccc(NC(=O)c6ccc(Cl)c(Cl)c6)cn5)ccc4n3C)CC2)cc1 [Example 375, 3,4-Dichloro-N-(6-{2-[4-(4-methoxymethylbenzyl)piperazine-1-carbonyl]-1-methyl-1H-indol-5-yloxy}pyridin-3-yl)benzamide hydrobromide]	244 to 249 °C (dec.)
Cn1c(C(=O)N2CCN(Cc3ccc(C#N)cc3)CC2)cc2cccc(Oc3ccc(NC(=O)c4ccc(C(F)(F)F)cc4)cn3)c21 [Example 245, N-(6-{2-[4-(4-Cyanobenzyl)piperazine-1-carbonyl]-1-methyl-1H-indol-7-yloxy}pyridin-3-yl)-4-trifluoromethylbenzamide]	228 to 229 °C
COc1ccc(CN2CCN(C(=O)c3cc4cc(Oc5ncc(N(C)C(=O)c6ccc(C(F)(F)F)cc6)cn5)ccc4n3C)CC2)cc1.O=C(O)/C=C\C(=O)O [Example 381, N-(2-{2-[4-(4-Methoxybenzyl)piperazine-1-carbonyl]-1-methyl-1H-indol-5-yloxy}pyrimidin-5-yl)-N-methyl-4-trifluoromethylbenzamide maleate]	160 to 161 °C
COc1ccc(CN2CCN(C(=O)c3cc4cccc(Oc5ccc(N(C)C(=O)c6ccc(C(F)(F)F)cc6)cn5)c4n3C)CC2)cc1.O=C(O)C(=O)O [Example 323, N-(6-{2-[4-(4-Methoxybenzyl)piperazine-1-carbonyl]-1-methyl-1H-indol-7-yloxy}pyridin-3-yl)-N-methyl-4-trifluoromethylbenzamide oxalate]	134 to 135 °C
CN(C(=O)Nc1ccc(Cl)c(Cl)c1)c1ccc(Oc2ccc3c(c2)cc(C(=O)N2CCN(Cc4ccc5c(c4)OCO5)CC2)n3C)nc1.Cl	240 to 243 °C
CN(C(=O)c1ccc(C(F)(F)F)cc1)c1ccc(Oc2ccc3c(c2)cc(C(=O)N2CCN(Cc4ccc5c(c4)OC(F)(F)O5)CC2)n3C)nc1.O=C(O)C(=O)O [Example 439, N-(6-{2-[4-(2,2-Difluorobenzo[1,3]dioxol-5-ylmethyl)piperazine-1-carbonyl]-1-methyl-1H-indol-5-yloxy}pyridin-3-yl)-N-methyl-4-tri-fluoromethylbenzamide oxalate]	155.7 to 156.9 °C
Br.CCOc1ccc(CN2CCN(C(=O)c3cc4cc(Oc5ccc(NC(=O)c6ccc(Cl)c(Cl)c6)cn5)ccc4n3C)CC2)cc1 [Example 360, 3,4-Dichloro-N-(6-{2-[4-(4-ethoxybenzyl)piperazine-1-carbonyl]-1-methyl-1H-indol-5-yloxy}pyridin-3-yl)benzamide hydrobromide]	235 to 238 °C (dec.)
Br.CC(C)Oc1ccc(CN2CCN(C(=O)c3cc4ccc(Oc5ccc(N(C)C(=O)c6ccc(C(F)(F)F)cc6Cl)cn5)cc4n3C)CC2)cc1 [Example 451, 2-Chloro-N-(6-{2-[4-(4-isopropoxybenzyl)piperazine-1-carbonyl]-1-methyl-1H-indol-6-yloxy}pyridin-3-yl)-N-methyl-4-trifluoromethyl-benzamide hydrobromide]	248.3 to 252.3 °C
Br.CC(C)Oc1ccc(CN2CCN(C(=O)c3cc4ccc(Oc5ccc(NC(=O)c6ccc(Cl)c(Cl)c6)cn5)cc4n3C)CC2)cc1F [Example 266, 3,4-Dichloro-N-(6-{2-[4-(3-fluoro-4-isopropoxybenzyl)piperazine-1-carbonyl]-1-methyl-1H-indol-6-yloxy}pyridin-3-yl)benzamide hydrobromide]	244.3 to 247 °C
CN(c1ccc(Oc2ccc3cc(C(=O)N4CCN(Cc5ccc6c(c5)OC(F)(F)O6)CC4)n(C)c3c2)nc1)S(=O)(=O)c1ccc(Cl)c(Cl)c1 [Example 508, 3,4-Dichloro-N-(6-{2-[4-(2,2-difluorobenzo[1,3]dioxol-5-yl-methyl)piperazine-1-carbonyl]-1-methyl-1H-indol-6-yloxy}pyridin-3-yl)-N-methylbenzenesulfonamide]	149.9 to 151.3 °C
Br.Br.Cc1cc(Oc2ccc3c(c2)cc(C(=O)N2CCN(Cc4cccnc4)CC2)n3C)ncc1NC(=O)c1ccc(C(F)(F)F)cc1 [Example 404, N-{4-Methyl-6-[1-methyl-2-(4-pyridin-3-ylmethylpiperazine-1-carbonyl)-1H-indol-5-yloxy]pyridin-3-yl}-4-trifluoromethyl-benzamide dihydrobromide]	215 to 217 °C
Br.Cn1c(C(=O)N2CCN(Cc3ccc(OCC(F)(F)F)cc3)CC2)cc2ccc(Oc3ccc(NS(C)(=O)=O)cn3)cc21 [Example 76, N-[6-(1-Methyl-2-{4-[4-(2,2,2-trifluoroethoxy)benzyl]piperazine-1-carbonyl}-1H-indol-6-yloxy)pyridin-3-yl]methanesulfonamide hydrobromide]	237.8 to 240.1 °C
O=C(CN1CCc2cc(Oc3ccc(NS(=O)(=O)c4ccc(Cl)c(Cl)c4)cn3)ccc21)N1CCN(Cc2ccc3c(c2)OCO3)CC1 [Example 64, N-(6-{1-[2-(4-Benzo[1,3]dioxol-5-ylmethylpiperazin-1-yl)-2-oxo-ethyl]-2,3-dihydro-1H-indol-5-yloxy}pyridin-3-yl)-3,4-dichloro-benzenesulfonamide]	152 to 153 °C
Br.Br.Cn1c(C(=O)N2CCN(Cc3ccccn3)CC2)cc2cc(Oc3ccc(NC(=O)c4ccc(Cl)c(Cl)c4)cn3)ccc21 [Example 564, 3,4-Dichloro-N-{6-[1-methyl-2-(4-pyridin-2-ylmethylpiperazine-1-carbonyl)-1H-indol-5-yloxy]pyridin-3-yl}benzamide dihydrobromide]	231 to 233 °C (dec.)
Br.Cn1c(C(=O)N2CCN(Cc3ccc(OC(F)F)cc3)CC2)cc2ccc(Oc3ccc(NC(=O)c4ccc(Cl)c(Cl)c4)cn3)cc21 [Example 254, 3,4-Dichloro-N-(6-{2-[4-(4-difluoromethoxybenzyl)piperazine-1-carbonyl]-1-methyl-1H-indol-6-yloxy}pyridin-3-yl)benzamide hydrobromide]	249 to 253.7 °C
CCCOc1ccc(CN2CCN(C(=O)c3cc4ccc(Oc5ccc(N(C)S(=O)(=O)c6ccc(C)cc6)cn5)cc4n3C)CC2)cc1 [Example 32, 4,N-Dimethyl-N-(6-{1-methyl-2-[4-(4-propoxybenzyl)piperazine-1-carbonyl]-1H-indol-6-yloxy}pyridin-3-yl)benzenesulfonamide]	135.9 to 136.8 °C
Br.Cc1cc(Oc2ccc3cc(C(=O)N4CCN(Cc5ccc(OCC(F)(F)F)cc5)CC4)n(C)c3c2)ncc1NC(=O)c1ccc(C(F)(F)F)cc1 [Example 46, N-[4-Methyl-6-(1-methyl-2-{4-[4-(2,2,2-trifluoroethoxy)benzyl]-piperazine-1-carbonyl}-1H-indol-6-yloxy)pyridin-3-yl]-4-tri-fluoromethylbenzamide hydrobromide]	222.4 to 224.6 °C
Br.CC(C)Oc1ccc(CN2CCN(C(=O)c3cc4ccc(Oc5ccc(NC(=O)c6ccc(C(F)(F)F)cc6)cn5)cc4n3C)CC2)cc1 [Example 476, N-(6-{2-[4-(4-Isopropoxybenzyl)piperazine-1-carbonyl]-1-methyl-1H-indol-6-yloxy}pyridin-3-yl)-4-trifluoromethylbenzamide hydrobromide]	258.7 to 259.6 °C
Br.CN(C(=O)c1ccc(C(F)(F)F)cc1)c1ccc(Oc2ccc3c(c2)cc(C(=O)N2CCN(Cc4ccccc4)CC2)n3C)nc1 [Example 329, N-{6-[2-(4-Benzylpiperazine-1-carbonyl)-1-methyl-1H-indol-5-yl-oxy]pyridin-3-yl}-N-methyl-4-trifluoromethylbenzamide hydrobromide]	189 to 201 °C
Br.Cn1c(C(=O)N2CCN(Cc3ccc(OC(CF)CF)cc3)CC2)cc2ccc(Oc3ccc(NC(=O)c4ccc(Cl)c(Cl)c4)cn3)cc21 [Example 470, 3,4-Dichloro-N-[6-(2-{4-[4-(2-fluoro-1-fluoromethylethoxy)-benzyl]piperazine-1-carbonyl}-1-methyl-1H-indol-6-yloxy)pyridin-3-yl]benzamide hydrobromide]	242.8 to 243.9 °C
Br.Cn1c(C(=O)N2CCN(Cc3ccc4c(c3)OCO4)CC2)cc2cc(Oc3ccc(NC(=O)c4ccc(C(F)(F)F)cc4)cn3)ccc21 [Example 8, N-{6-[2-(4-Benzo[1,3]dioxol-5-ylmethylpiperazine-1-carbonyl)-1-methyl-1H-indol-5-yloxy]pyridin-3-yl}-4-trifluoromethylbenzamide hydrobromide]	240 to 244 °C
Cc1ccc(S(=O)(=O)N(C)c2ccc(Oc3ccc4cc(C(=O)N5CCN(Cc6ccc(OCC7CC7)cc6)CC5)n(C)c4c3)nc2)cc1 [Example 530, N-(6-{2-[4-(4-Cyclopropylmethoxybenzyl)piperazine-1-carbonyl]-1-methyl-1H-indol-6-yloxy}pyridin-3-yl)-4,N-dimethylbenzene-sulfonamide]	135.6 to 138.6 °C
CN(C(=O)c1ccc(C(F)(F)F)cc1F)c1ccc(Oc2ccc3cc(C(=O)N4CCN(Cc5ccc(OC(F)F)cc5)CC4)n(C)c3c2)nc1.Cl	228.7 to 230.4 °C
